{"source": "the supplement of paper PMC10307832", "experiment_in_all_cases": "relative viability (nuclei count vs DMSO), 5 days (fraction); higher = more cells survive", "key": {"[1]": {"compound": "CC(O)(CS(=O)(=O)c1ccc(F)cc1)C(=O)Nc1ccc(C#N)c(C(F)(F)F)c1 [Bicalutamide] + Nc1ncn([C@H]2C[C@H](O)[C@@H](CO)O2)c(=O)n1 [Decitabine] (partner 2 µM)", "method_in_brief": "(§1)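 After 5 days of treatment, lung cancer cells in 1536-well plates were fixed and stained in a single step (final 0.05% Triton X-100, 1% formaldehyde, 1 ug/ml Hoechst) and their nuclei counted on 4× images. Treatment had been applied by pin tool the day after seeding as one drug alone or as a fixed anchor-drug dose with five library-drug doses (not always all listed) in √10 steps. Relative viability is the nuclei count of treated wells divided by that of vehicle wells, and values are medians of duplicate plates.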"}, "[2]": {"compound": "C(C(=O)C(=O)O)Br [Bromopyruvate] + C[C@@H](Oc1cc(-c2cnn(C3CCNCC3)c2)cnc1N)c1c(Cl)ccc(F)c1Cl [Crizotinib] (partner 1 µM)", "method_in_brief": "as §1"}, "[3]": {"compound": "CC(O)(CS(=O)(=O)c1ccc(F)cc1)C(=O)Nc1ccc(C#N)c(C(F)(F)F)c1 [Bicalutamide] + Cc1cc(Nc2cc(N3CCN(C)CC3)nc(Sc3ccc(NC(=O)C4CC4)cc3)n2)n[nH]1 [Tozasertib] (partner 0.1 µM)", "method_in_brief": "as §1"}, "[4]": {"compound": "CC(O)(CS(=O)(=O)c1ccc(F)cc1)C(=O)Nc1ccc(C#N)c(C(F)(F)F)c1 [Bicalutamide] + CC(=O)Nc1cccc(-n2c(=O)n(C3CC3)c(=O)c3c(Nc4ccc(I)cc4F)n(C)c(=O)c(C)c32)c1 [Trametinib] (partner 0.02 µM)", "method_in_brief": "as §1"}}}
{"cell line": "UMC-11", "values": [{"measurement": "relative viability", "setting": "[1]; first compound 0.08 µM", "result": 0.535}, {"measurement": "relative viability", "setting": "[1]; first compound 0.253 µM", "result": 0.507}, {"measurement": "relative viability", "setting": "[1]; first compound 0.8 µM", "result": 0.623}, {"measurement": "relative viability", "setting": "[1]; first compound 2.53 µM", "result": 0.555}, {"measurement": "relative viability", "setting": "[2]; first compound 1 µM", "result": 0.727}, {"measurement": "relative viability", "setting": "[2]; first compound 3.162 µM", "result": 0.655}, {"measurement": "relative viability", "setting": "[2]; first compound 10 µM", "result": 0.505}, {"measurement": "relative viability", "setting": "[2]; first compound 31.62 µM", "result": 0.509}, {"measurement": "relative viability", "setting": "[2]; first compound 100 µM", "result": 0.52}, {"measurement": "relative viability", "setting": "[3]; first compound 0.08 µM", "result": 0.193}, {"measurement": "relative viability", "setting": "[3]; first compound 0.253 µM", "result": 0.184}, {"measurement": "relative viability", "setting": "[3]; first compound 0.8 µM", "result": 0.191}, {"measurement": "relative viability", "setting": "[3]; first compound 2.53 µM", "result": 0.191}, {"measurement": "relative viability", "setting": "[4]; first compound 0.08 µM", "result": 0.771}, {"measurement": "relative viability", "setting": "[4]; first compound 0.253 µM", "result": 0.572}, {"measurement": "relative viability", "setting": "[4]; first compound 0.8 µM", "result": 0.808}, {"measurement": "relative viability", "setting": "[4]; first compound 2.53 µM", "result": 0.686}]}
